The values below come from US12590088B2, “Jak inhibitor compound and pharmaceutical composition including the same” (KOREA PHARMA CO., LTD., priority 2019, dated 2026).

One may read the IC50 as the concentration needed to halve the response being measured. A higher IC50 goes with lower potency. By GI50 is commonly meant the concentration that inhibits growth by half.

One test deals with JAK1 (Homo sapiens, UniProt P23458). The test can be described thus: JAK1 IC50 measurement. It counts as biochemical.
Test [1] addresses T1, JAK3 (Homo sapiens, UniProt P52333).
T1 sequence (P52333 1-1124): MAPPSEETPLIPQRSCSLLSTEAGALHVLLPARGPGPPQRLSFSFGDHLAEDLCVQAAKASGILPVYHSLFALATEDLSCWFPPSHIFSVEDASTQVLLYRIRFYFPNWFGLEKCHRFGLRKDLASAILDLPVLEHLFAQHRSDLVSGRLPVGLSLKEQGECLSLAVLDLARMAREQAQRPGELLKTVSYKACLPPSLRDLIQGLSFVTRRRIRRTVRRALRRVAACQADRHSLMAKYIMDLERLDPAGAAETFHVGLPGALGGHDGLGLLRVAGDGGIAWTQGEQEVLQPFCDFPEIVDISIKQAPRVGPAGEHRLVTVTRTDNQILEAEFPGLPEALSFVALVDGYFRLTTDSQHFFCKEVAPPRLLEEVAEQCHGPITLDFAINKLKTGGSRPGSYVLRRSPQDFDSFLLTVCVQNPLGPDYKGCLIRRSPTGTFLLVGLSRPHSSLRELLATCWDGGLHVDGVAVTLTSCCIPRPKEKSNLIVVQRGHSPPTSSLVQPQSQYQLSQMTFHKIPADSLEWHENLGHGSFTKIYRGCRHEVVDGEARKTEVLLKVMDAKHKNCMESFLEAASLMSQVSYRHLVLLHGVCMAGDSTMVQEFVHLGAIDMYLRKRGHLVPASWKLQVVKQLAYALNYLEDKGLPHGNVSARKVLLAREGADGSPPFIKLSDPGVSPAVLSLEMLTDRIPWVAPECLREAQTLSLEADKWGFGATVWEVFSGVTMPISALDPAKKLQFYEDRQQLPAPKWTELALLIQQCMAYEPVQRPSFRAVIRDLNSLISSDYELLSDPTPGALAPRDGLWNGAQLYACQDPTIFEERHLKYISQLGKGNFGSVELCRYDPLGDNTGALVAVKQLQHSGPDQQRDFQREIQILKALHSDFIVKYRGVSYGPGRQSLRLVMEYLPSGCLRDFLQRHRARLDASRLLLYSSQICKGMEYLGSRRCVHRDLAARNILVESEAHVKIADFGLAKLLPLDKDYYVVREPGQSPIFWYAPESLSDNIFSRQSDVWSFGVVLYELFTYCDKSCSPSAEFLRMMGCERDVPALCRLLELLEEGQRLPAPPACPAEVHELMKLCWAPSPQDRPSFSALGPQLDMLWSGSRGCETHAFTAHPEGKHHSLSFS
The test can be described thus: JAK3 IC50 measurement. It counts as biochemical.

In another test the target is TYK2 (Homo sapiens, UniProt P29597). The experiment in a line: TYK2 IC50 measurement. It counts as biochemical.
In the next test the target is JAK2 (Homo sapiens, UniProt O60674). The test can be described thus: JAK2 IC50 measurement. It is filed as biochemical.
Test [2] addresses T1, JAK3. The test can be described thus: Cell-based assay on Janus kinase inhibitors, JAK3 (GI50).

JAK1, sequence (P23458 whole entry): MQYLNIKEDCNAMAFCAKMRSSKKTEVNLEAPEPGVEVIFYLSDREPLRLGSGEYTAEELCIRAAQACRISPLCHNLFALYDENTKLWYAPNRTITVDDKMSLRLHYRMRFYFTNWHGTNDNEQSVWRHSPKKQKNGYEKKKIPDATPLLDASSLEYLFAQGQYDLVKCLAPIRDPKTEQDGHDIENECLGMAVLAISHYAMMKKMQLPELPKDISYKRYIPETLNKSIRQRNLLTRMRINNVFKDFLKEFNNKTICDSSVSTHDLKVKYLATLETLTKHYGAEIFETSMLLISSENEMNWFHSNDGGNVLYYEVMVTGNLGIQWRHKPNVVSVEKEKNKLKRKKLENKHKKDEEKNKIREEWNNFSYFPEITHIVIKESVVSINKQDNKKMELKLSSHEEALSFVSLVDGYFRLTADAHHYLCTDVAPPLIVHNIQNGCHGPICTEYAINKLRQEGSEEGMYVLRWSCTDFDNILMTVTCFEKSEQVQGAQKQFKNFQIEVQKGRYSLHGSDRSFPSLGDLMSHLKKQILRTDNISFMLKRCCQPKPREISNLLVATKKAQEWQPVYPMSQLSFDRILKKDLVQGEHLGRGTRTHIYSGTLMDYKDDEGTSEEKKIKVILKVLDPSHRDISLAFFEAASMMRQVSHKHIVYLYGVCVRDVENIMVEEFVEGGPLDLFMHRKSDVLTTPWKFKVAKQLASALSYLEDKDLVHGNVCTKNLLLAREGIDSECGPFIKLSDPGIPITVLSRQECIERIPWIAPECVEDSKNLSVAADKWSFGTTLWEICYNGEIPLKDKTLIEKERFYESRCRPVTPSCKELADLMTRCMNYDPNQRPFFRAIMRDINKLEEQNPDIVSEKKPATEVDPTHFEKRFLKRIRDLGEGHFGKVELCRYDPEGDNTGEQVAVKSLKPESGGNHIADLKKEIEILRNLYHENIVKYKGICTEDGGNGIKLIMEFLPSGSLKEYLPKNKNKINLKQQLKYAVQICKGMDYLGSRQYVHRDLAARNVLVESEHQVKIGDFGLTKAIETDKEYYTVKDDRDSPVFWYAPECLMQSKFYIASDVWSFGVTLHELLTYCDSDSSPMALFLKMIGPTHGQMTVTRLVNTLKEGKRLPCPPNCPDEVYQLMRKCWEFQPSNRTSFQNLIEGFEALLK
TYK2, sequence (P29597 whole entry): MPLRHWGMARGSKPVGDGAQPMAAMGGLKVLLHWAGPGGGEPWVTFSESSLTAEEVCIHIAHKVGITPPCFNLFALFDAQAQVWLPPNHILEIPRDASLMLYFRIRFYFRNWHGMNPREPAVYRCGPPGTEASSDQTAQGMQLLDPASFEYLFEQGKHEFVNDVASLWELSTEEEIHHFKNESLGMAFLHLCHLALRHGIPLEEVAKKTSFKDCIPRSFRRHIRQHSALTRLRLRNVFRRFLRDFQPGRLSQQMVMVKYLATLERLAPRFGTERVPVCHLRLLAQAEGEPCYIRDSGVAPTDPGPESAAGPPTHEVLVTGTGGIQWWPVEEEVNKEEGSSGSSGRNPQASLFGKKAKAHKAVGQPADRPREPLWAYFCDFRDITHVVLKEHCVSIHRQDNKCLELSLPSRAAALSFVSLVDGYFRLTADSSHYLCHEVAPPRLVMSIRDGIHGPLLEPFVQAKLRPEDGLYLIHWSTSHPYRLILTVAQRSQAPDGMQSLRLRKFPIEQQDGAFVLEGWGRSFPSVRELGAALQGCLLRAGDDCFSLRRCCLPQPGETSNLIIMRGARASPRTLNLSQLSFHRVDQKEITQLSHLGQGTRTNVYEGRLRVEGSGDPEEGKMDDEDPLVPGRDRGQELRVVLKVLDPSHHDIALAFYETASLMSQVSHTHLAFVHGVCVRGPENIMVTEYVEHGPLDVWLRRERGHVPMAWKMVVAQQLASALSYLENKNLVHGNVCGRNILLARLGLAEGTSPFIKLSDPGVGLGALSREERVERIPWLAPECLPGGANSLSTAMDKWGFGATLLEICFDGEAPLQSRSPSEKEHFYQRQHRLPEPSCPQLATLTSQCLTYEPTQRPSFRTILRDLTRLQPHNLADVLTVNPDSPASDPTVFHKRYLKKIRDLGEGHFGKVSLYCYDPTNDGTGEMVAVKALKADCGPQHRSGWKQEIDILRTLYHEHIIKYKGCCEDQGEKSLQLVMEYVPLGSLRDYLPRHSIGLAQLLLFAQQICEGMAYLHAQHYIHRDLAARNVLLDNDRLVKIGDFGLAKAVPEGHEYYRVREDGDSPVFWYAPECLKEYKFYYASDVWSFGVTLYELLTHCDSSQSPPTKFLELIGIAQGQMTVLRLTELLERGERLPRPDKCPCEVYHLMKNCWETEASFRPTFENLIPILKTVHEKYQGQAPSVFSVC
JAK2, sequence (O60674 whole entry): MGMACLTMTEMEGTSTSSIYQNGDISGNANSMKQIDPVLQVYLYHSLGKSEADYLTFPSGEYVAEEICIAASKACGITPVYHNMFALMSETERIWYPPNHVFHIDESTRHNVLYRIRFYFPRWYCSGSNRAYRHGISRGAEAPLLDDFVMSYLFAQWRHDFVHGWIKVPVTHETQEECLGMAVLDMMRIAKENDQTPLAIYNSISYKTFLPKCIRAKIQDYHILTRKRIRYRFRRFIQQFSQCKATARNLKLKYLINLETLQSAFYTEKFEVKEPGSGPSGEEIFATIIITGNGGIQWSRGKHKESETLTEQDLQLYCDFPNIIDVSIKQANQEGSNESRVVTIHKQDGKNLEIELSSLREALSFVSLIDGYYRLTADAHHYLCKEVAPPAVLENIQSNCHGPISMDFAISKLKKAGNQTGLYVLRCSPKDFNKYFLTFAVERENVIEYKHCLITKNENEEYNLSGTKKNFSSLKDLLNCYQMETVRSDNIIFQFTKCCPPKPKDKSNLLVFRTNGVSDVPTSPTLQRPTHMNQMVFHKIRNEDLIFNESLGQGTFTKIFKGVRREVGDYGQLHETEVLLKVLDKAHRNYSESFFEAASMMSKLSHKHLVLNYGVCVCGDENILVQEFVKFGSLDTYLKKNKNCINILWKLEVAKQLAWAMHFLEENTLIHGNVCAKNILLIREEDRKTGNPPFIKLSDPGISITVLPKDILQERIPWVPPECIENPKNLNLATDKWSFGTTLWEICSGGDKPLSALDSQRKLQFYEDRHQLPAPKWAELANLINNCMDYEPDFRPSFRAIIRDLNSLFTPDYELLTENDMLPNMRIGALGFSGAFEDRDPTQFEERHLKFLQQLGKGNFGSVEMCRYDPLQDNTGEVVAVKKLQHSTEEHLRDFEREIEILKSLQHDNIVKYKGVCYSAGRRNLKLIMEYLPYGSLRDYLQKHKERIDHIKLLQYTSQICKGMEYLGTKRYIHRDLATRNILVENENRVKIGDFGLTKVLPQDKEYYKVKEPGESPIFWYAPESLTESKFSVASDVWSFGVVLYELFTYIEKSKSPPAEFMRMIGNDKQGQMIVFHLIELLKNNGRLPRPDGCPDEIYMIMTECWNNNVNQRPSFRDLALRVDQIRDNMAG

Consider `CNC(=O)c1cnc2[nH]ccc2c1N[C@H]1CCCN(Cc2cccc(Cl)c2)C1` [Compound 18a, (S)-4-((1-(3-Chlorobenzyl)piperidin-3-yl)amino)-N-methyl-1H-pyrrolo[2,3-b]pyridine-5-carboxamide], for which the midpoint of inhibition at JAK1, the IC50, lay at 1.87 µM.
With `CNC(=O)c1cnc2[nH]ccc2c1NC1CC(NCc2ccccc2)C1` (stereo not drawn) [Compound 16a, 4-((3-(Benzylamino)cyclobutyl)amino)-N-methyl-1H-pyrrolo[2,3-b]pyridine-5-carboxamide], the IC50 against JAK1 was 0.13 µM.
In turn, `CNC(=O)c1cnc2[nH]ccc2c1NC1CC(NCc2cccc(Cl)c2)C1` (stereo not drawn) [Compound 16b, 4-((3-((3-Chlorobenzyl)amino)cyclobutyl)amino)-N-methyl-1H-pyrrolo[2,3-b]pyridine-5-carboxamide] yielded an IC50 on JAK1 of 0.016 µM.
In turn, `CNC(=O)c1cnc2[nH]ccc2c1NC1CC(NCc2ccc(Cl)cc2)C1` (stereo not drawn) [Compound 16c, 4-((3-((4-Chlorobenzyl)amino)cyclobutyl)amino)-N-methyl-1H-pyrrolo[2,3-b]pyridine-5-carboxamide] had an IC50 at JAK1 of 0.0138 µM.
Consider `CNC(=O)c1cnc2[nH]ccc2c1N[C@H]1CCCN(Cc2cccc(OC)c2)C1` [Compound 18b, (S)-4-((1-(3-Methoxybenzyl)piperidin-3-yl)amino)-N-methyl-1H-pyrrolo[2,3-b]pyridine-5-carboxamide], for which the IC50 at JAK3 [1] was 3.43 µM; at JAK1 it was 0.697 µM; at TYK2, 1.79 µM; against JAK2, 0.533 µM. Moreover, the “Selectivity for JAK1 JAK3/JAK1” value at JAK3 [1] (ratio of IC50 values) was found to be 4.92. Moreover, on TYK2, the “Selectivity for JAK1 TYK2/JAK1” value was found to be 2.56. Moreover, the “Selectivity for JAK1 JAK2/JAK1” value on JAK2 is given as 0.764.
For `CNC(=O)c1cnc2[nH]ccc2c1NC1CC2CCC(C1)N2Cc1cccc(C#N)c1` (stereo not drawn) [Compound 17f, 4-((8-(3-Cyanobenzyl)-8-azabicyclo[3.2.1]octan-3-yl)amino)-N-methyl-1H-pyrrolo[2,3-b]pyridine-5-carboxamide], the IC50 against JAK3 [1] was 0.0447 µM; at TYK2 it was 0.0922 µM; on JAK2, 0.0588 µM.
`CNC(=O)c1cnc2[nH]ccc2c1N[C@@H]1CCN(Cc2cccc(Cl)c2)[C@@H](C)C1` (relative stereo) [Compound 20b, 4-((trans-1-(3-Chlorobenzyl)-2-methylpiperidin-4-yl)amino)-N-methyl-11H-pyrrolo[2,3-b]pyridine-5-carboxamide] came in with a concentration for 50% growth inhibition (GI50) on JAK3 [2] of 8.24 µM.
